One data set concerns Bakterien. As to the kind of experiment: Comparative trials on germ reduction by aqueous MMPP solutions. To be noted: 0,1 bis 10 gewichts-%-ige aqueous solutions, about 30 Sekunden Einwirkzeit.
A short description of data set [1]: Skin tolerance observed during the hand disinfection and decontamination tests. It is filed as in vivo. The text has this:
(§1) Mit dieser Lösung wurde der Test zur chirurgischen Händedesinfektion entsprechend den Richtlinien der DGHM (Stand: 01.01.1981, Versuch II-2) durchgeführt. Bei diesem Versuch werden die Hände durch Einreiben 3 Minuten feucht gehalten und gegen ein Standardalkohol (n-Propanol 60 Vol.-%) nach 5 Minuten getestet. Der Test gilt als bestanden, wenn die residente Hautflora durch das Testpräparat gleich oder stärker reduziert wird als durch den Standard.
Mit einer solchen Lösung, die 4 Gew.-% des Wirkstoffes MMPP enthält, wurde ein Test zur Händedekontamination nach DGHM (Stand: 08.07.1986, Versuch 11) durchgeführt. Bei diesem Verfahren wird die Fähigkeit getestet, die transiente Hautflora zu reduzieren. Der Test gilt als bestanden, wenn das Präparat innerhalb von 30 Sekunden eine E. coli-Kontamination um 3,5 logarithmische Stufen entsprechend 99,9684 % reduziert.
Mit diesen Pasten wurden entsprechend Beispiel 2 die Versuche zur Händedekontamination durchgeführt. Die Hände werden 30 Sekunden mit 1,5 ml der Pasten eingerieben und dann mit Wasser entsprechend der Vorschrift aufgeschäumt.
Mit der Zubereitung aus Beispiel 2 wurde der Test zur hygienischen Händedesinfektion gemäß den Richtlinien der DGHM (Stand: 01.01.1981, Versuch II-1) durchgeführt. […]

For a further data set, the system named is residente Hautflora. As to the kind of experiment: Surgical hand disinfection test, DGHM guidelines (01.01.1981, Versuch II-2). To be noted: 5 gew.-%ige solution in demineralised water, hands kept moist 3 Minuten; standard n-Propanol 60 Vol.-% 5 Minuten. The class given is in vivo.
Text: as §1

The subject of data set [2] is transiente Flora (E. coli). Description: Hygienic hand disinfection test, DGHM guidelines (01.01.1981, Versuch II-1). The class given is in vivo. To be noted: 1 bis 10 gewichts-%-ige purely aqueous solutions, 30 bis 60 Sekunden; compared with requirements for 60 Volumen-% Ethanol or Isopropanol. Here is the method:
Mit der Zubereitung aus Beispiel 2 wurde der Test zur hygienischen Händedesinfektion gemäß den Richtlinien der DGHM (Stand: 01.01.1981, Versuch II-1) durchgeführt. Bei diesem Versuch muß die transiente Flora (E. coli) in 30 Sekunden gleich oder stärker reduziert werden als mit einem Standardalkohol (Isopropanol 60 Vol.-%) in 1 Minute.

Take `O=C(O)c1ccccc1C(=O)OO` [MMPP, Magnesium-Monoperoxidophthalat]: the Keimreduktion with Bakterien is recorded as greater than 4 log-Stufen; in the data set on Bakterien (equivalent of the log steps), > 99,99%. In addition, in data set [1] (0,1 bis 10 gewichts-%-ige aqueous solutions, Vergleichsversuche), the Hautverträglichkeit entry was “hervorragend hautverträglich”. Also, the Hautunverträglichkeiten result in data set [1] (Beispiel 1, 5 gew.-%ige MMPP-Lösung, surgical hand disinfection) is given as “keine Hautunverträglichkeiten”. For the same compound, the “Reduktion der residenten Hautflora gleich oder stärker als durch den Standard” value in the data set on residente Hautflora is “erfüllt diese Anforderungen”. Moreover, in data set [2], the “Keimreduktion bei der hygienischen Händedesinfektion” value is reported as “vergleichbare Keimreduktion”.
